The test has as its target T1, human FXR (NR1H4) (Homo sapiens, UniProt Q96RI1).
T1 sequence (Q96RI1 1-486): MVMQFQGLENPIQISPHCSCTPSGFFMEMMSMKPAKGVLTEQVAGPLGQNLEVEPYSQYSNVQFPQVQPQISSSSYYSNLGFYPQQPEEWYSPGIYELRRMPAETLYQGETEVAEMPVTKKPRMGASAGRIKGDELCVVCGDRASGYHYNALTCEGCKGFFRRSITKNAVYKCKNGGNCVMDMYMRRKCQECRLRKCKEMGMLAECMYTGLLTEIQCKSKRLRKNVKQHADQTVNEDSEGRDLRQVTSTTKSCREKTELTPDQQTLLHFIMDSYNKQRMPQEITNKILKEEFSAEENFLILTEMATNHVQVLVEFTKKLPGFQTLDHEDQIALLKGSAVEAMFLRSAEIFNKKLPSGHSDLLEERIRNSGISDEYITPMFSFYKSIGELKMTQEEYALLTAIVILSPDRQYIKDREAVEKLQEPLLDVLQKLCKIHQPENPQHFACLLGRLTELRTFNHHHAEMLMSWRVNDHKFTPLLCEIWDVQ
Description: Human FXR (NR1H4) Assay (Gal4 promoter driven luciferase reporter, Indigo Bioscience kit IB00601). Particulars: FXR agonistic potency; CHO reporter cells expressing human NR1H4; 22 hours incubation; luciferase readout. Type of test: cell-based. An excerpt:
Determination of a ligand mediated Gal4 promoter driven transactivation to quantify ligand binding mediated activation of FXR. FXR Reporter Assay kit purchased from Indigo Bioscience (Catalogue number: IB00601) to determine the potency and efficacy of compound developed by Enanta that can induce FXR activation. The principle application of this reporter assay system is to quantify functional activity of human FXR. The assay utilizes non-human mammalian cells, CHO (Chinese hamster ovary) cells engineered to express human NR1H4 protein (referred to as FXR). Reporter cells also incorporate the cDNA encoding beetle luciferase which catalyzes the substrates and yields photon emission. Luminescence intensity of the reaction is quantified using a plate-reading luminometer, Envision. Reporter Cells include the luciferase reporter gene functionally linked to an FXR responsive promoter. Thus, quantifying changes in luciferase expression in the treated reporter cells provides a sensitive surrogate measure of the changes in FXR activity. […] The assay is according to the manufacturer's instructions. In brief, the assay was performed in white, 96 well plates using final volume of 100 uL containing cells with different doses of compounds. Retrieve Reporter Cells from −80° C. storage. Perform a rapid thaw of the frozen cells by transferring a 10 ml volume of 37° C. cell recovery medium into the tube of frozen cells. Recap the tube of Reporter Cells and immediately place it in a 37° C. water bath for 5-10 minutes. Retrieve the tube of Reporter Cell Suspension from the water bath. Sanitize the outside surface of the tube with a 70% alcohol swab, and then transfer it into the cell culture hood. Dispense 90 μl of cell suspension into each well of the 96-well Assay Plate. Transfer the plate into 37° C. incubator, allowing the cells adherent to the bottom of the well. Dilute compounds in Dilution Plate (DP), and administrate to cells at Assay Plate (AP). DMSO content of the samples was kept at 0.2%. Cells were incubated for additional 22 hours before luciferase activities were measured. Thirty minutes before intending to quantify FXR activity, remove Detection Substrate and Detection Buffer from the refrigerator and place them in a low-light area so that they may equilibrate to room temperature. Remove the plate's lid and discard all media contents by ejecting it into an appropriate waste container. Gently tap the inverted plate onto a clean absorbent paper towel to remove residual droplets. Cells will remain tightly adhered to well bottoms. Add 100 μl of luciferase detection reagent to each well of the assay plate. Allow the assay plate to rest at room temperature for at least 5 minutes following the addition of LDR. Set the instrument (Envision) to perform a single 5 second “plate shake” prior to reading the first assay well. Read time may be 0.5 second (500 mSec) per well.

The molecule `CC[C@H]1[C@@H](O)[C@@H]2[C@H](CC[C@]3(C)[C@@H]([C@H](C)COC(=O)NS(=O)(=O)c4ccc(OC5CCCCC5)cc4)CC[C@@H]23)[C@@]2(C)CC[C@@H](O)C[C@@H]12` [Example 11] registered an EC50 of 1 to 10 nM.
The figure for `CC[C@H]1[C@@H](O)[C@@H]2[C@H](CC[C@]3(C)[C@@H]([C@H](C)COC(=O)NS(=O)(=O)c4ccc(OC)cc4)CC[C@@H]23)[C@@]2(C)CC[C@@H](O)C[C@@H]12` [Example 27] is 1 to 10 nM; for `CC[C@H]1[C@@H](O)[C@@H]2[C@H](CC[C@]3(C)[C@@H]([C@H](C)COC(=O)NS(=O)(=O)c4cc(C)c(OC(C)C)c(C)c4)CC[C@@H]23)[C@@]2(C)CC[C@@H](O)C[C@@H]12` [Example 18] it is less than 1 nM.
The figure for `CCCCOc1ccc(S(=O)(=O)NC(=O)OC[C@@H](C)[C@H]2CC[C@H]3[C@@H]4[C@H](O)[C@H](CC)[C@@H]5C[C@H](O)CC[C@]5(C)[C@H]4CC[C@]23C)cc1` [Example 21] is 1 to 10 nM; for `CC[C@H]1[C@@H](O)[C@@H]2[C@H](CC[C@]3(C)[C@@H]([C@H](C)COC(=O)NS(=O)(=O)c4ccc(OC5CCC5)cc4)CC[C@@H]23)[C@@]2(C)CC[C@@H](O)C[C@@H]12` [Example 8] it is less than 1 nM.

Source of the values: patent US10472386B2, “Bile acid derivatives as FXR agonists and methods of use thereof” (priority 2017, dated 2019).
